Source: PMC4319009, “Small Molecules Dorsomorphin and LDN-193189 Inhibit Myostatin/GDF8 Signaling and Promote Functional Myoblast Differentiation” (The Journal of Biological Chemistry, 2014)
pKd: −log10 of the molar value.

Legend:
[1] = biological target: T1, ActRIIA (Homo sapiens, UniProt P27037); assay: isothermal titration calorimetry; type: binding
T1 construct: gene ACVR2A; kinase domain residues 191-488, N-terminal His6 removed by TEV protease, vector pFB-LIC-Bse, baculovirus Sf9; two molecules per asymmetric unit
Excerpt: isothermal titration calorimetry on ActRIIA

[2] = biological target: T2, ActRIIB (Homo sapiens, UniProt Q13705); assay: isothermal titration calorimetry; type: binding
T2 construct: gene ACVR2B; kinase domain residues 190-487, N-terminal His6 removed by TEV protease, vector pFB-LIC-Bse, baculovirus Sf9
Excerpt: isothermal titration calorimetry on ActRIIB

T1 sequence (P27037 191-488): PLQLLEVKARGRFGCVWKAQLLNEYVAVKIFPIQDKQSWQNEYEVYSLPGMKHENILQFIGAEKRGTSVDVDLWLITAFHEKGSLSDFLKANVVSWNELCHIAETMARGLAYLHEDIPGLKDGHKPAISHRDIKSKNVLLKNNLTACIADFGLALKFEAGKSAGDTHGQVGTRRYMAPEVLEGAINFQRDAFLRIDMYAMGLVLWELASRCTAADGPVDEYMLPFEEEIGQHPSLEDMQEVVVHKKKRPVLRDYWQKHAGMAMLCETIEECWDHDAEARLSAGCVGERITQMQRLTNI
T2 sequence (Q13705 190-487): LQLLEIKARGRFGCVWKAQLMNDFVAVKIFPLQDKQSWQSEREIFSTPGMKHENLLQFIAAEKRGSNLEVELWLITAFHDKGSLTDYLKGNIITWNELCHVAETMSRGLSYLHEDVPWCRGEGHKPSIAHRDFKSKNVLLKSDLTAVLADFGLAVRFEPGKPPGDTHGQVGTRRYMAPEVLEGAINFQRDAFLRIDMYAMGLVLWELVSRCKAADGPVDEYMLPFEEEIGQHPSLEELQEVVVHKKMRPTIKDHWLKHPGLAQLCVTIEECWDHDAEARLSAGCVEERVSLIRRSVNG

Row | pKd [1] | pKd [2] | Structure (SMILES)
1 | 7.85 |  | c1ccc2c(-c3cnn4cc(-c5ccc(N6CCNCC6)cc5)cnc34)ccnc2c1 [LDN-193189]
2 | 7.24 | 7.52 | c1cc(-c2cnn3cc(-c4ccc(OCCN5CCCCC5)cc4)cnc23)ccn1 [Dorsomorphin]
